From US6368624B1, “Tableted product prepared by vacuum freeze-drying of a plant belonging to genus aloe of family Liliaceae and the method for producing same” (Yurika Incorporated, priority 1990, dated 2002) come the findings set out here.

The assay relates to human O-type erythrocytes. As to the kind of experiment: Erythrocyte agglutination, microtiter method. Type of assay: cell-based. The settings on record: at a concentration of 1 mg/ml. The procedure:
The inventive tablet and the control tablet obtained by drying under hot air circulation, were crushed into powders. 1.0 g each of the powders was dissolved in 10 ml of distilled water. After stirring, each of the resulting solutions was centrifuged at 4° C. for 30 minutes at 12,000 rpm.
The erythrocyte agglutination activity of each of the produced supernatants was examined in accordance with the microtiter method.
A buffer solution obtained by mixing phosphoric acid with physiological saline to pH 7.4 was added to 100 μl each of the supernatarits for two-stage dilution until 128-fold dilution was reached. To each diluted solution, 100 μof the 1% human O-type erythrocytes were added, and reaction was carried out at 37° C. for one hour to observe the progress of agglutination.

Turning to Concanavalin A, the Agglutination titer was 32 titer.
